In patent US20240308985A1 (Psy Therapeutics, Inc., priority 2021, published 2024) one finds IC50 data, which are given here for 34 compounds.

For the assay, the target named is Monoacylglycerol Lipase (MAGL) (Homo sapiens (Human), UniProt Q99685). Briefly: MAGL inhibition potency (IC50) assay with 4NPA substrate. The assay is classed as biochemical. From the text:
The potency of certain compounds for inhibiting MAGL were obtained using the following assays. The monoacylglycerol lipase inhibitor screening assay kit from Cayman Chemical was used to measure the MAGL potency for the compounds in Table 6 and Table 7. Cayman's Monoacylglycerol Lipase Inhibitor Screening Assay provides a method for screening human MAGL inhibitors. MAGL hydrolyzes 4-nitrophenylacetate resulting in a yellow product, 4-nitrophenol, with an absorbance of 405-412 nm. MAGL Inhibition was measured by the following assay. Monoacylglycerol Lipase (MAGL) inhibition was measured using recombinant MAGL enzyme (aa 2-303 RBC, internal preparation) and the substrate 4-Nitrophenyl acetate (4NPA) (Sigma-Aldrich, N8130). Hydrolysis of the substrate in the presence of the enzyme was measured by absorbance at 405 nm. 10 μL of assay buffer (10 mM Tris pH 7.5, 1 mM EDTA, 0.9% DMSO) was added to a black 384-well non-binding plate with clear bottom (Greiner, 781906) for each reaction. […] DMSO control wells were included for reference. A 10.8 nM (1.8×) MAGL mix in assay buffer was prepared, with 25 μL added to each reaction well, for a final assay concentration of 6 nM. No enzyme wells received 25 μL of buffer. Plate was incubated at room temperature for 30 minutes. 35 mM solution of 4NPA in methanol was prepared daily. A 4.5×4NPA substrate solution was prepared in assay buffer and 10 μL was added to each reaction well, for a final assay concentration of 0.25 mM. Plate was spun for 1 minute at 1000 rpm before measuring absorbance using a CLARIOstar plate reader (BMG Labtech). A kinetic reading at 405 nm was done every minute for 30 minutes. Data was analyzed using the linear slope of the reaction progress curve and the average of the no-enzyme wells (background) was subtracted from the data. The background-subtracted slope data was converted to % activity using the average of wells with enzyme and DMSO vehicle. IC50s were calculated using GraphPad software (Sigmoidal dose response, variable slope equation). […] Table 8 provides potency measurements of MAGL inhibition measured using the Potency Assay of Example 22 above, with the following modifications described in Table C. [table]

Where [1] appears, read: Method 2: Cayman Chemical MAGL enzyme, 10 nM, read-out: Potency (MAGL inhibition).
The mark [2] stands for this setting: Method 14: Reaction Biology MAGL enzyme, 6 nM, read-out: MAGL Potency (Detection Method).
Setting [3] is: Method 6: Reaction Biology MAGL enzyme, 6 nM, read-out: MAGL Potency (Detection Method).
Setting [4] is: Method 6: Reaction Biology MAGL enzyme, 6 nM, read-out: Potency (MAGL inhibition).
Where [5] appears, read: Method 2: Cayman Chemical MAGL enzyme, 10 nM, read-out: MAGL Potency (Detection Method).
Setting [6] is: Method 12: Reaction Biology MAGL enzyme, 15 nM, read-out: Potency (MAGL inhibition).
Where [7] appears, read: Method 14: Reaction Biology MAGL enzyme, 6 nM, read-out: Potency (MAGL inhibition).
Setting [8] is: Method 11: Reaction Biology MAGL enzyme, 25 nM (name: Conc 20), read-out: MAGL Potency (Detection Method).

Read-outs that look alike come from different tables or passages of the source. A value given as a limit tells only on which side of the number the result lay.

Chain of Monoacylglycerol Lipase (MAGL) (Q99685 2-303): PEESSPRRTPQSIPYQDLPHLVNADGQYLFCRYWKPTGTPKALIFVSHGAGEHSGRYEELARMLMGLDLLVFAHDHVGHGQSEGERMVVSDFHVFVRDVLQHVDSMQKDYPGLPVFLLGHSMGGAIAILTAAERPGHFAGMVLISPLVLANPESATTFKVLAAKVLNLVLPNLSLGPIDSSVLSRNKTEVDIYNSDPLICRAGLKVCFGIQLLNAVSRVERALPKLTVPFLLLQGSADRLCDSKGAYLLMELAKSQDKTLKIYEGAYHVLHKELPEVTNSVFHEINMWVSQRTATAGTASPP

Turning to `COc1cc(F)ccc1CN1CC2(CC(c3cc(C)nn3-c3ccccc3C)C2)C1` [Compound 149], under setting [1], the IC50 was above 10000 nM.
Consider `Cc1cc(C2CC3(C2)CN(C(=O)c2cc(O)ccc2F)C3)n(-c2ccccc2C(F)(F)F)n1` [Compound 366, (2-fluoro-5-hydroxyphenyl)(6-{3-methyl-1-[o-(trifluoromethyl)phenyl]-5-pyrazolyl}-2-aza-2-spiro[3.3]heptyl)methanone], for which the IC50 under setting [2] is below 50 nM.
`Cc1ccccc1-c1ccn(C(=O)C2CC3(C2)CN(C(=O)c2cc(O)ccc2F)C3)n1` [Compound 381, {2-(2-fluoro-5-hydroxybenzoyl)-2-aza-6-spiro[3,3]heptyl}[3-(o-tolyl)-1-pyrazolyl]methanone]: the IC50 under setting [2] lay in the range of 150 to 500 nM.
Regarding `Cc1ccc(F)cc1-c1cc(C)n(C2CC3(C2)CN(C(=O)c2cc(O)ccc2F)C3)n1` [Compound 446, (2-fluoro-5-hydroxyphenyl){6-[3-(5-fluoro-2-tolyl)-5-methyl-1-pyrazolyl]-2-aza-2-spiro[3.3]heptyl}methanone], the IC50 under setting [3] is below 50 nM.
Consider `Cc1ccccc1-c1ccn(C2CC3(C2)CN(C(=O)c2cc(O)ccc2F)C3)n1` [Compound 441], for which the IC50 under setting [4] is above 10000 nM.
With `Cc1cc(F)c(C(=O)N2CC3(CC(n4cc(C)c(-c5ccccc5C)n4)C3)C2)cc1O` [Compound 443], the IC50 under setting [3] was 1000 to 5100 nM.
With `CCOc1cc(F)ccc1C(=O)N1CC2(CC(C(=O)N(C)c3cccnc3C)C2)C1` [Compound 198], the IC50 (Method 4: Cayman Chemical MAGL enzyme, 15 nM, read-out: Potency (MAGL inhibition)) is above 10000 nM.
In the case of `Cc1cc(C2CC3(C2)CN(C(=O)c2ccc(F)c(O)c2)C3)n(-c2ccccc2C)n1` [Compound 141, (4-fluoro-3-hydroxyphenyl)(6-(3-methyl-1-(o-tolyl)-1H-pyrazol-5-yl)-2-azaspiro[3.3]heptan-2-yl)methanone], the IC50 (Method 1: Reaction Biology MAGL enzyme, 6 nM, read-out: MAGL Potency (Detection Method)) was in the range of 50 to 150 nM and the IC50 under setting [5] fell in the range of 150 to 500 nM.
On to `O=C(c1ccc(F)cc1OC1CC1)N1CC2(CC(n3cc(C(F)(F)F)c(-c4ccccc4F)n3)C2)C1` [Compound 524, (2-cyclopropoxy-4-fluorophenyl){6-[3-(o-fluorophenyl)-4-(trifluoromethyl)-1-pyrazolyl]-2-aza-2-spiro[3.3]heptyl}methanone], for which the IC50 (Method 12: Reaction Biology MAGL enzyme, 15 nM, read-out: MAGL Potency (Detection Method)) was 150 to 500 nM.
Turning to `Cc1cc(C2CC3(C2)CN(C(=N)c2cc(O)ccc2F)C3)n(-c2ccccc2C)n1` [Compound 144], the IC50 under setting [1] was above 10000 nM.
Regarding `O=C(c1c(F)cccc1OC1CC1)N1CC2(CC(n3ncc(C(F)(F)F)c3-c3ccccc3F)C2)C1` [Compound 521], the IC50 under setting [6] was above 10000 nM.
For `Cc1cc(-c2ccccc2C)n(C2CC3(C2)CN(C(=O)c2cc(O)ccc2F)C3)n1` [Compound 406], the IC50 under setting [4] is above 10000 nM.
For the compound `CCOc1cc(F)ccc1C(=O)N1CC2(CC(C(=O)Nc3ccccc3C)C2)C1` [Compound 188], under setting [1], the IC50 was above 10000 nM.
`Cc1cn(C2CC3(C2)CN(C(=O)c2cc(O)ccc2F)C3)nc1-c1ccccc1C(F)(F)F` [Compound 444, (2-fluoro-5-hydroxyphenyl)(6-{4-methyl-3-[o-(trifluoromethyl)phenyl]-1-pyrazolyl}-2-aza-2-spiro[3.3]heptyl)methanone]: the IC50 under setting [3] was below 50 nM.
As to `Cc1cn(C2CC3(C2)CN(C(=O)c2cc(O)ccc2C(F)(F)F)C3)nc1-c1ccccc1F` [Compound 495], the IC50 under setting [6] is above 10000 nM.
For the compound `O=C(c1cc(O)ccc1F)N1CC2(CC(C(=O)N3CCC4(COC4)C3)C2)C1` [Compound 391], under setting [7], the IC50 was above 10000 nM.
For `O=C(c1cc(O)ccc1F)N1CC2(CC(n3ncnc3-c3ccccc3Cl)C2)C1` [Compound 376, {6-[5-(o-chlorophenyl)-1H-1,2,4-triazol-1-yl]-2-aza-2-spiro[3.3]beptyl}(2-fluoro-5-hydroxyphenyl)methanone], the IC50 under setting [2] was 50 to 150 nM.
Consider `Cc1cc(C2CC3(C2)CN(C(=O)c2cc(O)ccc2F)C3)n(-c2cc(F)ccc2C)n1` [Compound 365, (2-fluoro-5-hydroxyphenyl){6-[1-(5-fluoro-2-tolyl)-3-methyl-5-pyrazolyl]-2-aza-2-spiro[3.3]heptyl}methanone], for which the IC50 under setting [2] is below 50 nM.
Consider `COc1cc(F)ccc1C(=O)N1CC2(CC(n3nc(-c4cc(F)ccc4C)cc3C)C2)C1` [Compound 439, (4-fluoro-2-methoxyphenyl){6-[3-(5-fluoro-2-tolyl)-5-methyl-1-pyrazolyl]-2-aza-2-spiro[3.3]heptyl}methanone], for which the IC50 under setting [3] lay within 1000 to 5100 nM.
Regarding `Cc1ccc(F)cc1-c1cc(C)n(C2CC3(C2)CN(C(=O)c2ccc(F)cc2OCC(F)(F)F)C3)n1` [Compound 467, {6-[3-(5-fluoro-2-tolyl)-5-methyl-1-pyrazolyl]-2-aza-2-spiro[3.3]heptyl} [4-fluoro-2-(2,2,2-trifluoroethoxy)phenyl]methanone], the IC50 under setting [8] was 150 to 500 nM.
Consider `Cc1cc(F)c(C(=O)N2CC3(CC(n4ncc(C)c4-c4ccccc4C)C3)C2)cc1O` [Compound 407], for which the IC50 under setting [3] is 50 to 150 nM.
As to `Cc1cc(-c2cc(F)ccc2C)n(C2CC3(C2)CN(C(=O)c2ccc(F)cc2OCC(F)(F)F)C3)n1` [Compound 466], under setting [8], the IC50 fell in the range of 500 to 1000 nM.
On to `Cc1ccccc1N(C)C(=O)C1CC2(C1)CN(C(=O)c1cc(O)ccc1F)C2` [Compound 185, 2-(2-Fluoro-5-hydroxybenzoyl)-N-Methyl-N-(o-tolyl)-2-azaspiro [3.3]heptane-6-carboxamide], for which the IC50 (Methods 2, 3, read-out: MAGL Potency (Detection Method)) lay within 50 to 150 nM.
On to `Cc1cc(-c2ccccc2C)n(C2CC3(C2)CN(C(=O)c2ccc(F)cc2OCC(F)(F)F)C3)n1` [Compound 464, [4-fluoro-2-(2,2,2-trifluoroethoxy)phenyl]{6-[3-methyl-5-(o-tolyl)-1-pyrazolyl]-2-aza-2-spiro[3.3]heptyl}methanone], for which the IC50 under setting [8] was 500 to 1000 nM.
Turning to `Cc1cc(-c2cc(F)ccc2C)n(C2CC3(C2)CN(C(=O)c2ccc(F)cc2OC2CC2)C3)n1` [Compound 423, (2-cyclopropoxy-4-fluorophenyl){6-[5-(5-fluoro-2-tolyl)-3-methyl-1-pyrazolyl]-2-aza-2-spiro[3.3]heptyl}methanone], the IC50 under setting [3] was in the range of 1000 to 5100 nM.
On to `Cc1cc(C2CC3(C2)CN(C(=O)c2c(F)ccc(O)c2C)C3)n(-c2ccccc2C)n1` [Compound 370], for which the IC50 under setting [2] lay within 500 to 1000 nM.
Take `Cc1cc(F)ccc1-n1c(C)cnc1C1CC2(C1)CN(C(=O)c1cc(O)ccc1F)C2` [Compound 380, (2-fluoro-5-hydroxyphenyl){6-[1-(4-fluoro-2-tolyl)-5-methyl-2-imidazolyl]-2-aza-2-spiro[3.3]heptyl}methanone]: under setting [2], the IC50 is 1000 to 5100 nM.
With `O=C(c1cc(O)ccc1F)N1CC2(CC(C(=O)N3CCOCC3)C2)C1` [Compound 384], under setting [7], the IC50 is above 10000 nM.
For the compound `Cc1cc(-c2cc(F)ccc2C)n(C2CC3(C2)CN(C(=O)c2ccc(F)cc2OC(F)(F)F)C3)n1` [Compound 427], where the note is “Method 11: Reaction Biology MAGL enzyme, 25 nM (name: Conc 20), read-out: Potency (MAGL inhibition)”, the IC50 is above 10000 nM.
For the compound `O=C(c1cc(O)ccc1F)N1CC2(CC(C(=O)N3CCCC3)C2)C1` [Compound 388], under setting [7], the IC50 was above 10000 nM.
In the case of `Cc1ccc(F)cc1-c1cc(C)n(C2CC3(C2)CN(C(=O)c2ccc(F)cc2OC(F)(F)F)C3)n1` [Compound 454, {6-[3-(5-fluoro-2-tolyl)-5-methyl-1-pyrazolyl]-2-aza-2-spiro[3.3]heptyl}(4-fluoro-2-trifluoromethoxyphenyl)methanone], the IC50 under setting [8] is 1000 to 5100 nM.
For `Cc1ccc(F)cc1-c1cc(C(F)(F)F)nn1C1CC2(C1)CN(C(=O)c1ccc(F)cc1OC1CC1)C2` [Compound 457, (2-cyclopropoxy-4-fluorophenyl){6-[5-(5-fluoro-2-tolyl)-3-(trifluoromethyl)-1-pyrazolyl]-2-aza-2-spiro[3.3]heptyl}methanone], the IC50 under setting [8] lay within 1000 to 5100 nM.
`Cc1cc(C2CC3(C2)CN(C(=O)c2ccc(F)cc2OC(C)C)C3)n(-c2ccccc2C)n1` [Compound 177, (4-fluoro-2-isopropoxyphenyl)(6-(3-methyl-1-(o-tolyl)-1H-pyrazol-5-yl)-2-azaspiro[3.3]heptan-2-yl)methanone]: under setting [5], the IC50 fell in the range of 50 to 150 nM.
For `O=C(c1cc(O)ccc1F)N1CC2(CC(n3ncc(C4CC4)c3-c3ccccc3Cl)C2)C1` [Compound 411, {6-[5-(o-chlorophenyl)-4-cyclopropyl-1-pyrazolyl]-2-aza-2-spiro[3.3]heptyl}(2-fluoro-5-hydroxyphenyl)methanone], the IC50 under setting [3] lay within 150 to 500 nM.
